Each compound was assayed against T1, Fructose-1,6-bisphosphatase 1 (Homo sapiens, UniProt P09467) (assay: Inhibition of human liver FBPase 1). Conditions: not given.
T1 sequence (P09467 whole entry): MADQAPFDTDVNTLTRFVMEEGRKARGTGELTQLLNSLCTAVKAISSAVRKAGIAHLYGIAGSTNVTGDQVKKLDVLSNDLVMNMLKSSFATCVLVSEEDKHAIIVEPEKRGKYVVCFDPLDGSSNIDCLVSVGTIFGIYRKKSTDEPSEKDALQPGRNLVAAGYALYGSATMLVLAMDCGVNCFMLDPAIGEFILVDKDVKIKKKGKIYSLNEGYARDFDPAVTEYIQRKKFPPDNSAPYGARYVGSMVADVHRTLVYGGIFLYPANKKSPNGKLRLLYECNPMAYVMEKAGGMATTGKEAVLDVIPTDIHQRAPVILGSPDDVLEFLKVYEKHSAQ
In the case of `CC(C)Cn1c(-c2ccc(P(=O)(O)O)o2)nc2c(N)c(O)ccc21`, the IC50 is reported as 500 nM. For `COc1ccc2c(nc(-c3ccc(P(=O)(O)O)o3)n2CC(C)C)c1N`, the IC50 was 700 nM. `CC(C)(C)c1ccc(Cn2c(-c3ccc(P(=O)(O)O)o3)nc3c(N)cccc32)cc1` gave an IC50 of 9500 nM. `CC(C)Cn1c(-c2ccc(P(=O)(O)O)o2)nc2c(N)ccc(Br)c21` showed an IC50 of 400 nM. In the case of `CC(C)Cn1c(-c2ccc(P(=O)(O)O)o2)nc2c(N)c(F)cc(CCCCCl)c21`, the IC50 is reported as 70 nM. Work on `CC(C)Cn1c(-c2ccc(P(=O)(O)O)o2)nc2c(N)c(Cl)ccc21` yielded an IC50 of 200 nM. Compound `CC(C)Cn1c(-c2ccc(P(=O)(O)O)o2)nc2c(N)c(F)c(Cl)cc21` has an IC50 of 225 nM. With `CCCc1cc(F)c(N)c2nc(-c3ccc(P(=O)(O)O)o3)n(CC(C)C)c12` the IC50 was 100 nM. `Nc1cccc2c1nc(-c1ccc(P(=O)(O)O)o1)n2CC12CCC(CC1)C2` gave an IC50 of 1000 nM. `CC(C)Cn1c(-c2ccc(P(=O)(O)O)o2)nc2c(N)cccc21` gave an IC50 of 1500 nM. In the case of `CC(C)CCCc1cc(F)c(N)c2nc(-c3ccc(P(=O)(O)O)o3)n(CC(C)C)c12`, the IC50 is reported as 100 nM. `CC(C)Cn1c(-c2ccc(P(=O)(O)O)o2)nc2c(N)c(F)cc(CCC(C)(C)C)c21` was tested, and the IC50 was 210 nM. With `CC(C)Cn1c(-c2ccc(P(=O)(O)O)o2)nc2c(N)c(F)ccc21` the IC50 was 100 nM. For `CC(C)Cn1c(-c2ccc(P(=O)(O)O)o2)nc2c(N)c(Br)cc(Br)c21`, the IC50 was 1000 nM. `Nc1cccc2c1nc(-c1ccc(P(=O)(O)O)o1)n2Cc1ccoc1` was tested, and the IC50 was 4200 nM. For `Nc1cccc2c1nc(-c1ccc(P(=O)(O)O)o1)n2Cc1ccsc1`, the IC50 was 4000 nM. Compound `CC(C)Cn1c(-c2ccc(P(=O)(O)O)o2)nc2c(N)c(F)cc(-c3ccccc3)c21` has an IC50 of 90 nM. Work on `CC(C)Cn1c(-c2ccc(P(=O)(O)O)o2)nc2c(N)c(F)cc(-c3ccc(F)cc3)c21` yielded an IC50 of 180 nM. For `Nc1cccc2c1nc(-c1ccc(P(=O)(O)O)o1)n2CC1CCCCCC1`, the IC50 was 3250 nM. `CCCn1c(-c2ccc(P(=O)(O)O)o2)nc2c(N)cccc21` was tested, and the IC50 was 1100 nM. With `CCc1ccc2c(nc(-c3ccc(P(=O)(O)O)o3)n2CC(C)C)c1N` the IC50 was 2500 nM. `Nc1cccc2c1nc(-c1ccc(P(=O)(O)O)o1)n2CC1CCC1` was tested, and the IC50 was 800 nM. `CC(C)Cn1c(-c2ccc(P(=O)(O)O)o2)nc2c(N)c(Br)ccc21` gave an IC50 of 400 nM. Work on `CC(C)Cn1c(-c2ccc(P(=O)(O)O)o2)nc2c(N)c(Br)c(Cl)c(Cl)c21` yielded an IC50 of 10000 nM. Compound `Nc1cccc2c1nc(-c1ccc(P(=O)(O)O)o1)n2CC1CCCC1` has an IC50 of 1500 nM. `CCn1c(-c2ccc(P(=O)(O)O)o2)nc2c(N)cccc21` showed an IC50 of 2250 nM.

Each compound was assayed against T2, Fructose-1,6-bisphosphatase 1 (Rattus norvegicus, UniProt P19112) (assay: Inhibition of rat liver FBPase 1). Conditions: not given.
T2 sequence (P19112 whole entry): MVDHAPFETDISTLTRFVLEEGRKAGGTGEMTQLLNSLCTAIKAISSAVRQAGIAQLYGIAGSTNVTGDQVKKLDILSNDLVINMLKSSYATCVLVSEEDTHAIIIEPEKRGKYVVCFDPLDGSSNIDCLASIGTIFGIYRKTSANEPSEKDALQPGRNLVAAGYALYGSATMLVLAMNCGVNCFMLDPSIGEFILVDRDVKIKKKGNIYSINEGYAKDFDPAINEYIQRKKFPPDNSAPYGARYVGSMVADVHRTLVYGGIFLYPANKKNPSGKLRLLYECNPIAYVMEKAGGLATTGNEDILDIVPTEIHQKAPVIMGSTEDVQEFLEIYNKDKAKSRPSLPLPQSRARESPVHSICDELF
`CC(C)Cn1c(-c2ccc(P(=O)(O)O)o2)nc2c(N)c(O)ccc21` gave an IC50 of 20000 nM. Compound `COc1ccc2c(nc(-c3ccc(P(=O)(O)O)o3)n2CC(C)C)c1N` has an IC50 of 2000 nM. `CC(C)(C)c1ccc(Cn2c(-c3ccc(P(=O)(O)O)o3)nc3c(N)cccc32)cc1` was tested, and the IC50 was 20000 nM. `CC(C)Cn1c(-c2ccc(P(=O)(O)O)o2)nc2c(N)ccc(Br)c21` showed an IC50 of 2000 nM. `CC(C)Cn1c(-c2ccc(P(=O)(O)O)o2)nc2c(N)c(F)cc(CCCCCl)c21` showed an IC50 of 500 nM. `CC(C)Cn1c(-c2ccc(P(=O)(O)O)o2)nc2c(N)c(Cl)ccc21` showed an IC50 of 2000 nM. In the case of `CC(C)Cn1c(-c2ccc(P(=O)(O)O)o2)nc2c(N)c(F)c(Cl)cc21`, the IC50 is reported as 2000 nM. For `CCCc1cc(F)c(N)c2nc(-c3ccc(P(=O)(O)O)o3)n(CC(C)C)c12`, the IC50 was 650 nM. Compound `Nc1cccc2c1nc(-c1ccc(P(=O)(O)O)o1)n2CC12CCC(CC1)C2` has an IC50 of 2000 nM. `CC(C)Cn1c(-c2ccc(P(=O)(O)O)o2)nc2c(N)cccc21` showed an IC50 of 4000 nM. For `CC(C)CCCc1cc(F)c(N)c2nc(-c3ccc(P(=O)(O)O)o3)n(CC(C)C)c12`, the IC50 was 2100 nM. `CC(C)Cn1c(-c2ccc(P(=O)(O)O)o2)nc2c(N)c(F)cc(CCC(C)(C)C)c21` showed an IC50 of 1600 nM. In the case of `CC(C)Cn1c(-c2ccc(P(=O)(O)O)o2)nc2c(N)c(F)ccc21`, the IC50 is reported as 2280 nM. Work on `CC(C)Cn1c(-c2ccc(P(=O)(O)O)o2)nc2c(N)c(Br)cc(Br)c21` yielded an IC50 of 2000 nM. `Nc1cccc2c1nc(-c1ccc(P(=O)(O)O)o1)n2Cc1ccoc1` gave an IC50 of 20000 nM. `Nc1cccc2c1nc(-c1ccc(P(=O)(O)O)o1)n2Cc1ccsc1` showed an IC50 of 20000 nM. With `CC(C)Cn1c(-c2ccc(P(=O)(O)O)o2)nc2c(N)c(F)cc(-c3ccccc3)c21` the IC50 was 900 nM. Compound `CC(C)Cn1c(-c2ccc(P(=O)(O)O)o2)nc2c(N)c(F)cc(-c3ccc(F)cc3)c21` has an IC50 of 1300 nM. With `Nc1cccc2c1nc(-c1ccc(P(=O)(O)O)o1)n2CC1CCCCCC1` the IC50 was 20000 nM. With `CCCn1c(-c2ccc(P(=O)(O)O)o2)nc2c(N)cccc21` the IC50 was 2000 nM. In the case of `CCc1ccc2c(nc(-c3ccc(P(=O)(O)O)o3)n2CC(C)C)c1N`, the IC50 is reported as 20000 nM. In the case of `Nc1cccc2c1nc(-c1ccc(P(=O)(O)O)o1)n2CC1CCC1`, the IC50 is reported as 2000 nM. `Nc1cccc2c1nc(-c1ccc(P(=O)(O)O)o1)n2CC1CCCC1` showed an IC50 of 2000 nM. Work on `CCn1c(-c2ccc(P(=O)(O)O)o2)nc2c(N)cccc21` yielded an IC50 of 40000 nM.

These compounds were tested on Rattus norvegicus (assay: Reduction of blood glucose level in 18 hrs fasted normal Sprague-Dawley rat at 10 mg/kg, iv after 1 hr interval). Conditions: not given.
Format: functional
Parameters: scale not given: the % may be the effect or the level left
`CC(C)Cn1c(-c2ccc(P(=O)(O)O)o2)nc2c(N)c(F)cc(CCCCCl)c21` gave an Activity of 47%. `CCCc1cc(F)c(N)c2nc(-c3ccc(P(=O)(O)O)o3)n(CC(C)C)c12` was tested, and the Activity was 60%. `CC(C)Cn1c(-c2ccc(P(=O)(O)O)o2)nc2c(N)c(F)cc(CCC(C)(C)C)c21` showed an Activity of 28%. `CC(C)Cn1c(-c2ccc(P(=O)(O)O)o2)nc2c(N)c(F)cc(-c3ccccc3)c21` gave an Activity of 0%. Work on `CC(C)Cn1c(-c2ccc(P(=O)(O)O)o2)nc2c(N)c(F)cc(-c3ccc(F)cc3)c21` yielded an Activity of 0%.

What follows are compounds tested on Hepatocyte (assay: cells). Conditions: Rattus norvegicus.
Description: Inhibition of glucose production in rat primary hepatocytes
Work on `CC(C)Cn1c(-c2ccc(P(=O)(O)O)o2)nc2c(N)c(O)ccc21` yielded an IC50 of 25 µM. Work on `COc1ccc2c(nc(-c3ccc(P(=O)(O)O)o3)n2CC(C)C)c1N` yielded an IC50 of 16 µM. For `CC(C)(C)c1ccc(Cn2c(-c3ccc(P(=O)(O)O)o3)nc3c(N)cccc32)cc1`, the IC50 was 100 µM. Compound `CC(C)Cn1c(-c2ccc(P(=O)(O)O)o2)nc2c(N)ccc(Br)c21` has an IC50 of 14 µM. Work on `CC(C)Cn1c(-c2ccc(P(=O)(O)O)o2)nc2c(N)c(F)cc(CCCCCl)c21` yielded an IC50 of 3.1 µM. For `CC(C)Cn1c(-c2ccc(P(=O)(O)O)o2)nc2c(N)c(Cl)ccc21`, the IC50 was 15 µM. `CC(C)Cn1c(-c2ccc(P(=O)(O)O)o2)nc2c(N)c(F)c(Cl)cc21` was tested, and the IC50 was 16 µM. With `CCCc1cc(F)c(N)c2nc(-c3ccc(P(=O)(O)O)o3)n(CC(C)C)c12` the IC50 was 5.5 µM. `Nc1cccc2c1nc(-c1ccc(P(=O)(O)O)o1)n2CC12CCC(CC1)C2` was tested, and the IC50 was 25 µM. `CC(C)Cn1c(-c2ccc(P(=O)(O)O)o2)nc2c(N)cccc21` showed an IC50 of 20 µM. For `CC(C)CCCc1cc(F)c(N)c2nc(-c3ccc(P(=O)(O)O)o3)n(CC(C)C)c12`, the IC50 was 23 µM. Work on `CC(C)Cn1c(-c2ccc(P(=O)(O)O)o2)nc2c(N)c(F)cc(CCC(C)(C)C)c21` yielded an IC50 of 18 µM. With `CC(C)Cn1c(-c2ccc(P(=O)(O)O)o2)nc2c(N)c(F)ccc21` the IC50 was 2.4 µM. `CC(C)Cn1c(-c2ccc(P(=O)(O)O)o2)nc2c(N)c(Br)cc(Br)c21` showed an IC50 of 14 µM. `Nc1cccc2c1nc(-c1ccc(P(=O)(O)O)o1)n2Cc1ccoc1` was tested, and the IC50 was 100 µM. Work on `Nc1cccc2c1nc(-c1ccc(P(=O)(O)O)o1)n2Cc1ccsc1` yielded an IC50 of 100 µM. `CC(C)Cn1c(-c2ccc(P(=O)(O)O)o2)nc2c(N)c(F)cc(-c3ccccc3)c21` showed an IC50 of 18 µM. `CC(C)Cn1c(-c2ccc(P(=O)(O)O)o2)nc2c(N)c(F)cc(-c3ccc(F)cc3)c21` showed an IC50 of 21 µM. In the case of `Nc1cccc2c1nc(-c1ccc(P(=O)(O)O)o1)n2CC1CCCCCC1`, the IC50 is reported as 100 µM. In the case of `CCCn1c(-c2ccc(P(=O)(O)O)o2)nc2c(N)cccc21`, the IC50 is reported as 37 µM. With `CCc1ccc2c(nc(-c3ccc(P(=O)(O)O)o3)n2CC(C)C)c1N` the IC50 was 50 µM. In the case of `Nc1cccc2c1nc(-c1ccc(P(=O)(O)O)o1)n2CC1CCC1`, the IC50 is reported as 40 µM. In the case of `CC(C)Cn1c(-c2ccc(P(=O)(O)O)o2)nc2c(N)c(Br)ccc21`, the IC50 is reported as 14 µM. With `Nc1cccc2c1nc(-c1ccc(P(=O)(O)O)o1)n2CC1CCCC1` the IC50 was 45 µM.

— ChEMBL document CHEMBL1156817, “Fructose-1,6-bisphosphatase Inhibitors. 2. Design, synthesis, and structure-activity relationship of a series of phosphonic acid containing benzimidazoles that function as 5'-adenosinemonophosphate (AMP) mimics” (J Med Chem, 2010)
